Experimental data as given in patent US7332476B2, “Pyridyl substituted ketolide antibiotics” (Novartis AG, priority 2003, dated 2008).
Values after ≈ are worked out from the molar mass of the structure shown.

What was measured:
[1] = test system: Streptococcus pneumoniae Stpn_280-962; experiment: MIC, broth microdilution (NCCLS); assay type: cell-based; set-up: MIC, strain ID O: unit not given beside the values
How it was run: (§1)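 NCCLS broth microdilution with 2-fold serial drug dilutions (methanol stocks diluted in water); inoculum 3×10^5–7×10^5 CFU/ml in CAMHB, with 2-5% lysed horse blood for S. pneumoniae. Incubation 18-24 h at 35° C., ambient air, except S. pneumoniae (5-10% CO2). MIC is lowest concentration preventing visible growth.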

[2] = test system: Enterococcus faecalis Enfa_bc 11148-2; experiment: MIC, broth microdilution (NCCLS); assay type: cell-based; conditions: in µg/mL (unit assumed)
How it was run: (§2)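 NCCLS broth microdilution; CAMHB / HTM (H. influenzae); inoc 3×10^5–7×10^5 CFU/ml; 35° C, 18-24 h, H. influenzae 5-10% CO2; MIC = no visible growth.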

[3] = test system: Haemophilus influenzae Hain_960730503-3; experiment: MIC, broth microdilution (NCCLS); assay type: cell-based; conditions: in µg/mL (unit assumed)
How it was run: as §2

[4] = test system: Haemophilus influenzae Hain_953460299-3; experiment: MIC, broth microdilution (NCCLS); assay type: cell-based; conditions: in µg/mL (unit assumed)
How it was run: as §2

[5] = test system: Haemophilus influenzae Hain_960820544-3; experiment: MIC, broth microdilution (NCCLS); assay type: cell-based; conditions: in µg/mL (unit assumed)
How it was run: as §2

[6] = test system: Haemophilus influenzae Hain_2762; experiment: MIC, broth microdilution (NCCLS); assay type: cell-based; conditions: in µg/mL (unit assumed)
How it was run: as §2

[7] = test system: Staphylococcus aureus Stau_33591; experiment: MIC, broth microdilution (NCCLS); assay type: cell-based; conditions: unit assumed
How it was run: as §2

[8] = test system: Streptococcus pyogenes Stpy_8668; experiment: MIC, broth microdilution (NCCLS); assay type: cell-based; set-up: MIC, strain ID G: unit not given beside the values
How it was run: as §1

[9] = test system: Haemophilus influenzae Hain_49247; experiment: MIC, broth microdilution (NCCLS); assay type: cell-based; conditions: unit assumed
[10] = test system: Streptococcus pneumoniae Stpn_Erm S 4297; experiment: MIC, broth microdilution (NCCLS); assay type: cell-based
How it was run: as §1

[11] = test system: Staphylococcus epidermidis Step_f50654; experiment: MIC, broth microdilution (NCCLS); assay type: cell-based
How it was run: as §1

[12] = test system: Staphylococcus aureus Stau_29213; experiment: MIC, broth microdilution (NCCLS); assay type: cell-based
How it was run: as §1

[13] = test system: Enterococcus faecalis Enfa_29212; experiment: MIC, broth microdilution (NCCLS); assay type: cell-based
How it was run: as §1

[14] = test system: Staphylococcus epidermidis Step_14990; experiment: MIC, broth microdilution (NCCLS); assay type: cell-based
How it was run: as §1

[15] = test system: Streptococcus pneumoniae Stpn_49619; experiment: MIC, broth microdilution (NCCLS); assay type: cell-based; set-up: MIC, strain ID M: unit not given beside the values
How it was run: as §1

[16] = test system: S. pneumoniae Stpn_Erm 6849; experiment: MIC, broth microdilution (NCCLS); assay type: cell-based, Streptococcus pneumoniae; conditions: strain ID P; broth microdilution; in µg/mL (unit assumed)
How it was run: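 S. pneumoniae MIC by NCCLS broth microdilution in cation-adjusted Mueller-Hinton broth with 2-5% lysed horse blood, inoculum 3×10^5–7×10^5 CFU/ml, 2-fold drug dilutions. Incubated 18-24 hours at 35° C. in 5-10% CO2; MIC is lowest concentration preventing visible growth.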

[17] = test system: Streptococcus pneumoniae Stpn_297-749; experiment: MIC, broth microdilution (NCCLS); assay type: cell-based; set-up: MIC, strain ID N: unit not given here
How it was run: as §1

[18] = In vivo pharmacokinetic study in rats, plasma (IV and PO); set-up: species or system Sprague-Dawley rats; conditions: rat; for half-life / AUC / clearance / Vd: male, Sprague-Dawley, plasma; for half-life: 5 mg/kg, read-out: t1/2, IV Plasma (converted); for half-life / AUC: IV; for AUC: dose IV = 5 mg/kg (Compound XIV: IV = 15); for clearance / Vd: intravenous; for Vd: read-out: Vss; for F, PO: PO = 15 mg/kg
Description: (§3) Animal Models. A total of 54 male Sprague-Dawley rats, weighing 200 grams in average, were evaluated for pharmacokinetic studies of representative pyridyl substituted ketolides. Rats were under overnight food restriction and received water ad libitum. Rats were acclimated for approximately 5 days before antibiotic administration.
(§4) Antibiotic Administration. Rats were given bolus administration through (IV) and oral (PO) routes. Representative pyridyl substituted ketolides and telithromycin, for comparison, were diluted in 0.85% saline to a concentration of 15.0 mg/ml, and the resulting pH was adjusted using 1N acetic acid until the compound was in solution. Approximately 200 microliters of the compound solution was administered to the rats. The target dose for IV and PO administration was 5 mg/kg and 15 mg/kg, respectively.
(§5) Sample Collection. Plasma and whole lung samples were collected from the rats. Plasma samples were obtained from blood samples by centrifugation at 3000 RPM for 10 min. Heparin was added in the plasma as an anticoagulant. Whole lung samples were homogenized in deionized water. Samples were stored at −80° C. A total of 9 time points were collected in triplicate at 0.083, 0.25, 0.5, 1, 2, 4, 6, 8, and 24 hrs. Ketolide concentrations in plasma and lung were determined by well-established non-GLP LC-MS-MS methods. PK parameters were estimated from the raw bioanalytical data using WinNolin software (Version 4.0, Pharsight Corporation, CA). […] All representative compounds were compared to telithromycin.

[19] = In vivo pharmacokinetic study in rats, whole lung (IV and PO); conditions: male, Sprague-Dawley, 5 mg/kg, rat; for half-life: IV, whole lung, read-out: t1/2, IV Lung (converted); for Kp: lung/plasma, iv, read-out: L/P ratio, IV
Description: as §3, §4, §5

[20] = test system: Streptococcus pneumoniae Stpn_Mef 5654; experiment: MIC, broth microdilution (NCCLS); assay type: cell-based; conditions: Table 10, Strain ID P (Table 8): Streptococcus pneumoniae Stpn_Mef 5654; in µg/mL (unit assumed)
How it was run: as §1

[21] = test system: Streptococcus pneumoniae Stpn_Mef S 3427; experiment: MIC, broth microdilution (NCCLS); assay type: cell-based; conditions: Table 10, Strain ID Q (Table 8): Streptococcus pneumoniae Stpn_Mef S 3427
How it was run: as §1

C=C[C@]12OC(=O)N(CCCCn3cnc(-c4cnccc4Cl)c3)[C@@H]1[C@@H](C)C(=O)[C@H](C)C[C@](C)(OC)[C@H](OC1O[C@H](C)C[C@H](N(C)C)[C@H]1O)[C@@H](C)C(=O)[C@@H](C)C(=O)O[C@@H]2CC (stereo partly shown) [XXX]
MIC, strain ID O ([1]; strain ID O, broth microdilution): =0.05 | MIC, strain ID F ([2]; strain ID F, broth microdilution): 0.4 | MIC, strain ID I ([3]; strain ID I, broth microdilution): 6.25 | MIC, strain ID K ([4]; strain ID K, broth microdilution): 3.13 | MIC, strain ID J ([5]; strain ID J, broth microdilution): 6.25 | MIC, strain ID L ([6]; strain ID L, broth microdilution): 0.78 | MIC, strain ID B ([7]; strain ID B, broth microdilution): > 50 mg/L | MIC, strain ID G ([8]; strain ID G, broth microdilution): =0.05 | MIC, strain ID H ([9]; strain ID H, broth microdilution): 3.13 mg/L (≈ 3.65 µM) | MIC, strain ID Q ([10]; strain ID Q, broth microdilution): =0.05 | MIC, strain ID D ([11]; strain ID D, broth microdilution, in µg/mL (unit assumed)): 0.1 | MIC, strain ID A ([12]; strain ID A, broth microdilution, in µg/mL (unit assumed)): 0.2 | MIC, strain ID E ([13]; strain ID E, broth microdilution): =0.05 | MIC, strain ID C ([14]; strain ID C, broth microdilution, in µg/mL (unit assumed)): 0.2 | MIC, strain ID M ([15]; strain ID M, broth microdilution): =0.05 | MIC, strain ID P [16]: 0.4 | MIC, strain ID N ([17]; strain ID N, broth microdilution): =0.05 | half-life [18]: 1 h | AUC [18]: 2.1 µg·h/mL | clearance [18]: 7.26 L/h/kg | Vd [18]: 8 L/kg | F, PO [18]: 21% | half-life [19]: 1.2 h | Kp [19]: 75

C=C[C@]12OC(=O)N(CCCCn3cnc(-c4ccc(Cl)nc4)c3)[C@@H]1[C@@H](C)C(=O)[C@H](C)C[C@](C)(OC)[C@H](OC1O[C@H](C)C[C@H](N(C)C)[C@H]1O)[C@@H](C)C(=O)[C@@H](C)C(=O)O[C@@H]2CC (stereo partly shown) [XX]
MIC [20]: 0.2 | MIC ([1]; Table 10, Strain ID O (Table 8): Streptococcus pneumoniae Stpn_280-962): =0.05 | MIC ([2]; Table 10, Strain ID F (Table 8): Enterococcus faecalis Enfa_bc 11148-2): 0.1 | MIC ([3]; Table 10, Strain ID I (Table 8): Haemophilus influenzae Hain_960730503-3): 3.13 | MIC ([4]; Table 10, Strain ID K (Table 8): Haemophilus influenzae Hain_953460299-3): 6.25 | MIC ([5]; Table 10, Strain ID J (Table 8): Haemophilus influenzae Hain_960820544-3): 3.13 | MIC ([6]; Table 10, Strain ID L (Table 8): Haemophilus influenzae Hain_2762): 0.78 | MIC ([7]; Table 10, Strain ID B (Table 8): Staphylococcus aureus Stau_33591): > 50 mg/L | MIC ([8]; Table 10, Strain ID G (Table 8): Streptococcus pyogenes Stpy_8668): =0.05 | MIC ([9]; Table 10, Strain ID H (Table 8): Haemophilus influenzae Hain_49247): 3.13 mg/L (≈ 3.65 µM) | MIC ([10]; Table 10, Strain ID R (Table 8): Streptococcus pneumoniae Stpn_Erm S 4297): =0.05 | MIC ([11]; Table 10, Strain ID D (Table 8): Staphylococcus epidermidis Step_f50654): =0.05 | MIC ([12]; Table 10, Strain ID A (Table 8): Staphylococcus aureus Stau_29213): =0.05 | MIC ([13]; Table 10, Strain ID E (Table 8): Enterococcus faecalis Enfa_29212): =0.05 | MIC [21]: =0.05 | MIC ([14]; Table 10, Strain ID C (Table 8): Staphylococcus epidermidis Step_14990): =0.05 | MIC ([15]; Table 10, Strain ID M (Table 8): Streptococcus pneumoniae Stpn_49619): =0.05 | MIC ([17]; Table 10, Strain ID N (Table 8): Streptococcus pneumoniae Stpn_297-749): =0.05 | half-life [18]: 1.3 h | AUC [18]: 2.3 µg·h/mL | clearance [18]: 6.42 L/h/kg | Vd [18]: 12 L/kg | F, PO [18]: 26% | half-life [19]: 1.4 h | Kp [19]: 94
